Consider 32 compounds from the Kinase Knowledgebase extract (Sharma et al. 2016).

For orientation: IC50 means the concentration at which inhibition is half-maximal. A high value points to a need for much substance.

Molecules are shown by their SMILES.

Assay [1] addresses PIK3CA (human) (UniProt P42336). Description: Enzyme Assay.
Assay [2] addresses PIK3CB (Human) (UniProt P42338). Description: Enzyme Assay.
Assay [3] deals with PIK3CD (Human) (UniProt O00329). Description: Enzyme Assay.
In assay [4] the target is PIK3CG (human) (UniProt P48736). Description: Enzyme Assay.
Sequence of PIK3CG (human) (P48736 whole entry, looked up): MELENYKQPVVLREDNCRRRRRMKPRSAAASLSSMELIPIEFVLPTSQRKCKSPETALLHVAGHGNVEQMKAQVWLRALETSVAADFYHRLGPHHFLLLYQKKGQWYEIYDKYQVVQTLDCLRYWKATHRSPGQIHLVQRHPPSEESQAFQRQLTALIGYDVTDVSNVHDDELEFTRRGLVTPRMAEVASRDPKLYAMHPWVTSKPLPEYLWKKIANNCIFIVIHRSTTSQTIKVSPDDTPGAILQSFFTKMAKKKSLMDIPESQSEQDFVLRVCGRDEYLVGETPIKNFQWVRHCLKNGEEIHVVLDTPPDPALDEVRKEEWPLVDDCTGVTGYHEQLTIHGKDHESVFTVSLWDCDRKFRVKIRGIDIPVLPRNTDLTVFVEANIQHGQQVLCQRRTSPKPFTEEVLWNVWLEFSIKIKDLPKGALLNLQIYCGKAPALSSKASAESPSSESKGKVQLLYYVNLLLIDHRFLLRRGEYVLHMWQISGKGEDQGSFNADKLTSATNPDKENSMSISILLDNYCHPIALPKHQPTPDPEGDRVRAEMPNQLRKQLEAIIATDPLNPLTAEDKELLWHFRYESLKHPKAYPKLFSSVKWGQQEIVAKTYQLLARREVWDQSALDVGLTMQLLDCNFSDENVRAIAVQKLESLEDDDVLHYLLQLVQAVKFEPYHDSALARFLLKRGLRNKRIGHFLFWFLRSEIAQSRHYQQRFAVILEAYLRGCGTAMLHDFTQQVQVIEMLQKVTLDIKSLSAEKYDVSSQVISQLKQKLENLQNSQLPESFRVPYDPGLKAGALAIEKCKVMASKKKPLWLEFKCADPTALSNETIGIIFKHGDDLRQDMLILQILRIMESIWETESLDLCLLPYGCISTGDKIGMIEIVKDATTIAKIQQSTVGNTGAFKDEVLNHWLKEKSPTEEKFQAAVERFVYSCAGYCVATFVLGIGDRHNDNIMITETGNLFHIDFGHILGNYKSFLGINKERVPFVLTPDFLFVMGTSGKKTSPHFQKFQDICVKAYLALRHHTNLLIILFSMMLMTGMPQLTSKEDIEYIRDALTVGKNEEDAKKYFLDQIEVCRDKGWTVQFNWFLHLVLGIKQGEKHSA
The target in assay [5] is PIK3CD (Human) (UniProt O00329). Description: Cell-Based Assay. Conditions: b cells.

Sequence of PIK3CD (Human) (O00329 whole entry, looked up): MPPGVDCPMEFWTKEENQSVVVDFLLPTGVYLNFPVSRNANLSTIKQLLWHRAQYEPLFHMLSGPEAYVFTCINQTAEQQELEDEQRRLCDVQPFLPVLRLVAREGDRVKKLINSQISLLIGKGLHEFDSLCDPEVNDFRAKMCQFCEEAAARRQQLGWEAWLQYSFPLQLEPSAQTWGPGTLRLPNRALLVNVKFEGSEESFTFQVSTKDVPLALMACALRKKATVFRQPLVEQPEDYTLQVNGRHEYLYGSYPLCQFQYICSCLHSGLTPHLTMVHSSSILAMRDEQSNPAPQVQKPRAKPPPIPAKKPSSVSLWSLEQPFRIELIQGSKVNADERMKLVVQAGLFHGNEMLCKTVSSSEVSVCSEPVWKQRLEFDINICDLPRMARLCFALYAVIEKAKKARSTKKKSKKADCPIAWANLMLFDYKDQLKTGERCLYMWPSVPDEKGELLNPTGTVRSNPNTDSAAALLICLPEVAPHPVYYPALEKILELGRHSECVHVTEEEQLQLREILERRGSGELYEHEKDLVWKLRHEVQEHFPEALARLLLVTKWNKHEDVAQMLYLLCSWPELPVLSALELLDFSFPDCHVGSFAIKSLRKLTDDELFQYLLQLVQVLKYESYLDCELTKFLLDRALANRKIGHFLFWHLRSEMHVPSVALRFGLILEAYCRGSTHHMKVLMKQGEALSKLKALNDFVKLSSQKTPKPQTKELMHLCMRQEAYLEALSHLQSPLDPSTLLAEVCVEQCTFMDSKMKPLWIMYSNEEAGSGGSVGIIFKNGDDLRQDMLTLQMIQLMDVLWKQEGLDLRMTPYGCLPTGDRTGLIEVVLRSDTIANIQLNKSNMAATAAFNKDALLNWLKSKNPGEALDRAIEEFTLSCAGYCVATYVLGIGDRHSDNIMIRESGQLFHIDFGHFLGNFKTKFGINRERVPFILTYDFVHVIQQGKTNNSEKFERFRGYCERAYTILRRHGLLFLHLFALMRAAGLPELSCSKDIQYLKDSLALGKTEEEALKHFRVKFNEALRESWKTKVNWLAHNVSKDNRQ
Sequence of PIK3CA (human) (P42336 whole entry, looked up): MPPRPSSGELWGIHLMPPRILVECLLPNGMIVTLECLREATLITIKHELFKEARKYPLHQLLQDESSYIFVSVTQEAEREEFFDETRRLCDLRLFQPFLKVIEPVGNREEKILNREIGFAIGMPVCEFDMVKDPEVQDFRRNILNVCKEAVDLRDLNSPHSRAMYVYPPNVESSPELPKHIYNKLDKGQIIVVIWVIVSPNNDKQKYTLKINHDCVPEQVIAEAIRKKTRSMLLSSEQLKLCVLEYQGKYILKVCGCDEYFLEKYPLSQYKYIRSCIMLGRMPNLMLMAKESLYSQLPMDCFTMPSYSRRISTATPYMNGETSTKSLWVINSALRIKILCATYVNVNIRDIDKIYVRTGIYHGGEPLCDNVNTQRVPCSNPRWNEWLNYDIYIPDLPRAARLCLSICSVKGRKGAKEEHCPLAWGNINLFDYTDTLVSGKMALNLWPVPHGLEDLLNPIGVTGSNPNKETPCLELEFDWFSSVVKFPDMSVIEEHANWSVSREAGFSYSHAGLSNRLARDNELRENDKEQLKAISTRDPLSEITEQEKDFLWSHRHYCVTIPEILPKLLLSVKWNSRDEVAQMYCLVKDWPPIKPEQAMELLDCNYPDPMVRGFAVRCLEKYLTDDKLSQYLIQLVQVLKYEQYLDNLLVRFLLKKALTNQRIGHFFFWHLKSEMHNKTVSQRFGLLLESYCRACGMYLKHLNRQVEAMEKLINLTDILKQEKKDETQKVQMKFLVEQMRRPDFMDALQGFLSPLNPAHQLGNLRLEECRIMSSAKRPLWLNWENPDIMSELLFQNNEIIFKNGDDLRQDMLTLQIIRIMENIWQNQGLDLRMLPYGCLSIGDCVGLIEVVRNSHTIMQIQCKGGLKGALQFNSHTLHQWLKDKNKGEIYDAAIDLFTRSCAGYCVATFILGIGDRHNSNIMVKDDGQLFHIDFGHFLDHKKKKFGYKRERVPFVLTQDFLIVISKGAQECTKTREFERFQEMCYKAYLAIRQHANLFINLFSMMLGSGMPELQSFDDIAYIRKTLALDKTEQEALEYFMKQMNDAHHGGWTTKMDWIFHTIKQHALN
Sequence of PIK3CB (Human) (P42338 whole entry, looked up): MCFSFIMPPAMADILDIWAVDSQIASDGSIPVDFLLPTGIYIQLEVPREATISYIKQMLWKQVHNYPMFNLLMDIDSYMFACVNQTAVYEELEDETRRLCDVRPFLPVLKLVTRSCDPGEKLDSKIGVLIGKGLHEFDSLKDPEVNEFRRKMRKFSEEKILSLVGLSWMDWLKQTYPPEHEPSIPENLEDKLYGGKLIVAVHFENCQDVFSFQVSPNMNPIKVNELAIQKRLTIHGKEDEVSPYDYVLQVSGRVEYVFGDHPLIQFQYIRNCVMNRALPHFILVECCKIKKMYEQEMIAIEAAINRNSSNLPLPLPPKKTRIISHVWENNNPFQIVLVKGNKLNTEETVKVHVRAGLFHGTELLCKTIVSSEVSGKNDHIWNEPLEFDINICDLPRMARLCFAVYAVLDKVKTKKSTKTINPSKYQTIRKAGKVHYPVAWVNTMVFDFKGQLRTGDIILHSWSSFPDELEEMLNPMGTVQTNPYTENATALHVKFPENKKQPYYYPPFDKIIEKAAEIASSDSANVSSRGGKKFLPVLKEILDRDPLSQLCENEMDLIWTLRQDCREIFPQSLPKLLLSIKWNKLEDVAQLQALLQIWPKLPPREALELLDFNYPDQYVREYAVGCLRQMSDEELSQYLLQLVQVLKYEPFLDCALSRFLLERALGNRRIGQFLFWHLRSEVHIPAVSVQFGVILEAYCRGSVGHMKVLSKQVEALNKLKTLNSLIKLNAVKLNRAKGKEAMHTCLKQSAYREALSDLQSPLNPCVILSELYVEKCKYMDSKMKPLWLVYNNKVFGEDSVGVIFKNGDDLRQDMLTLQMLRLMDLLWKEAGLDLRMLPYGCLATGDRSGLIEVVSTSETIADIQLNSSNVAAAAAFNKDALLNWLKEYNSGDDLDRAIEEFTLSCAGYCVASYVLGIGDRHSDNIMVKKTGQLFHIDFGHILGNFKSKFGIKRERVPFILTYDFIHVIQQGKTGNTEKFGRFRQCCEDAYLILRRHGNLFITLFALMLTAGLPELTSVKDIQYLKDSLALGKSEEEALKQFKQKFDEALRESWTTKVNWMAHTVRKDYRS

For the compound `C[C@H](Nc1ncnc2[nH]cnc12)c1cc2cccc(F)c2nc1-c1ccccn1`, the concentration for half-maximal inhibition (IC50) in assay [1] came to 125000 nM; in assay [2] it was 2200 nM; in assay [3], 29 nM; in assay [4], 1700 nM; in assay [5], 14 nM.
In the same order, the values of `C[C@H](Nc1ncnc2[nH]cnc12)c1cc2ccc(F)cc2nc1-c1cccc(F)c1` are 14000 nM, 1300 nM, 6.6 nM, 120 nM and 13 nM.
The corresponding values for `C[C@H](Nc1ncnc2[nH]cnc12)c1cc2cccc(Cl)c2nc1-c1cccc(F)c1` are 5700 nM, 370 nM, 12 nM, 38 nM and 2.4 nM.
In assay [3], `Cc1nnc2ccc(Cl)cc2c1N1CC(C)(C)c2ccc(N3CCOCC3)cc21` had a concentration for half-maximal inhibition (IC50) of 19000 nM.
Take `C[C@H](Nc1ncnc2[nH]cnc12)c1cc2cccc(C#N)c2nc1-c1ccccn1`: the IC50 in assay [1] is 62000 nM; in assay [2], 5200 nM; in assay [3], 43 nM; in assay [4] it was 1100 nM; in assay [5], 47 nM.
The corresponding values for `Cc1ccccc1-c1nc2c(C)cccc2cc1COc1ncnc2[nH]cnc12` are 42000 nM, 1700 nM, 17 nM, 580 nM and 47 nM.
The corresponding values for `C[C@H](Nc1ncnc2[nH]cnc12)c1cc2cccc(F)c2nc1-c1cccnc1` are 81000 nM, 2900 nM, 16 nM, 830 nM and 15 nM.
For the compound `Fc1cccc(-c2nc3c(Cl)cccc3cc2CNc2ncnc3[nH]cnc23)c1`, the IC50 in assay [1] stood at 52000 nM; in assay [2], 3700 nM; in assay [3], 82 nM; in assay [4], 840 nM; in assay [5], 28 nM.
As to `Cc1ccccc1-c1nc2c(C)cccc2cc1[C@@H](C)Oc1ncnc2[nH]ccc12`, the IC50 was more than 125000 nM in assay [1], 7600 nM in assay [2], 2600 nM in assay [3] and 22000 nM in assay [4].
As to `C[C@H](Nc1ncnc2[nH]cnc12)c1cc2cccc(Cl)c2nc1-c1ccccn1`, the IC50 in assay [1] is 14000 nM; in assay [2], 670 nM; in assay [3], 66 nM; in assay [4], 150 nM; in assay [5], 3.2 nM.
In the same order, the values of `Cc1ccccc1-c1nc2c(C)cccc2cc1CNc1ncnc2[nH]cnc12` are 37000 nM, 2100 nM, 41 nM, 290 nM and 51 nM.
As for `C[C@H](Nc1ncnc2[nH]cnc12)c1nc2cccc(Cl)c2nc1-c1ccccn1`, the half-inhibitory concentration (IC50) in assay [1] came to 46000 nM; in assay [2], 1090 nM; in assay [3] it was 5.2 nM; in assay [4], 440 nM; in assay [5], 12 nM.
As for `Cc1ccccc1-c1nc2c(C)cccc2cc1CCc1ncnc2[nH]cnc12`, the 50% inhibitory concentration (IC50) was more than 125000 nM in assay [1], more than 12000 nM in assay [2], 3600 nM in assay [3] and 18000 nM in assay [4].
`COc1ccccc1-c1nc2c(C)cccc2cc1COc1ncnc2[nH]cnc12`: the IC50 is more than 125000 nM in assay [1]; 2900 nM in assay [2]; 44 nM in assay [3]; 2600 nM in assay [4]; 88 nM in assay [5].
In the same order, the values of `C[C@H](Nc1ncnc2[nH]cnc12)c1nc2ccc(F)cc2nc1-c1ccccn1` are 22000 nM, 4100 nM, 24 nM, 890 nM and 18 nM.
The corresponding values for `C[C@H](Nc1ncnc2[nH]cnc12)c1cc2ccc(F)cc2nc1-c1ccccc1S(C)(=O)=O` are 20000 nM, 2100 nM, 11 nM, 340 nM and 6.8 nM.
For the compound `Cc1ncc(F)cc1-c1nc2c(Cl)cccc2cc1[C@H](C)Nc1ncnc2[nH]cnc12`, the half-maximal inhibitory concentration (IC50) in assay [2] was found to be 1800 nM; in assay [3], 18 nM; in assay [4] it was 230 nM; in assay [5], 17 nM.
With `C[C@H](Nc1ncnc2[nH]cnc12)c1cc2c(F)cc(F)cc2nc1-c1ccccn1`, the IC50 in assay [1] stood at 6900 nM; in assay [2], 1900 nM; in assay [3], 16 nM; in assay [4] it was 610 nM.
For `COc1ccccc1-c1nc2c(C)cccc2cc1CSc1ncnc2[nH]cnc12`, the IC50 in assay [1] is 53000 nM; in assay [2] it was 49000 nM; in assay [3] it was 240 nM; in assay [4] it was 8600 nM; in assay [5], 840 nM.
As to `Cc1ccccc1-n1c(CNc2nc(N)nc3[nH]cnc23)nc2cccc(C)c2c1=O`, the IC50 was 10000 nM in assay [1], 1800 nM in assay [2], 25 nM in assay [3] and 140 nM in assay [4].
As for `Cc1ccccc1-c1nc2c(C)cccc2cc1[C@H](C)Oc1ncnc2[nH]ccc12`, the 50% inhibitory concentration (IC50) in assay [1] amounted to 6500 nM; in assay [2] it was 1000 nM; in assay [3], 7.1 nM; in assay [4] it was 93 nM; in assay [5], 4.3 nM.
On to `C[C@H](Nc1ncnc2[nH]cnc12)c1cc2cccc(F)c2nc1-c1cccc(F)c1`, for which the IC50 in assay [2] stood at 1100 nM; in assay [3], 10 nM; in assay [4], 250 nM; in assay [5], 5.2 nM.
On to `C[C@H](Nc1ncnc2[nH]cnc12)c1cc2cccc(Cl)c2nc1-c1cccc(S(C)(=O)=O)c1`, for which the IC50 in assay [1] came to 47000 nM; in assay [2], 1100 nM; in assay [3], 15 nM; in assay [4], 770 nM; in assay [5], 56 nM.
The corresponding values for `C[C@H](Nc1ncnc2[nH]cnc12)c1nc2cccc(Cl)c2nc1-c1cccc(F)c1` are 8100 nM, 1400 nM, 10 nM, 160 nM and 14 nM.
In the case of `C[C@H](Nc1ncnc2[nH]cnc12)c1nc2c(Cl)cccc2nc1-c1ccccn1`, the half-inhibitory concentration (IC50) in assay [1] is 125000 nM; in assay [2] it was 3600 nM; in assay [3], 59 nM; in assay [4], 6600 nM; in assay [5], 21 nM.
In the case of `C[C@H](Nc1ncnc2[nH]cnc12)c1cc2cccc(Cl)c2nc1-c1ccccc1Cl`, the IC50 in assay [1] is 36000 nM; in assay [2] it was 1500 nM; in assay [3], 8 nM; in assay [4] it was 140 nM; in assay [5], 3.6 nM.
Turning to `C[C@H](Nc1ncnc2[nH]cnc12)c1cc2cccc(F)c2nc1-c1cc(F)ccc1F`, the IC50 in assay [1] was determined as 125000 nM; in assay [2], 1900 nM; in assay [3], 18 nM; in assay [4], 560 nM; in assay [5] it was 13 nM.
For the compound `Cc1ccccc1-c1nc2c(C)cccc2cc1COc1ncnc2[nH]ccc12`, the concentration for half-maximal inhibition (IC50) in assay [1] is more than 125000 nM; in assay [2], 3300 nM; in assay [3], 38 nM; in assay [4], 710 nM; in assay [5], 270 nM.
In the same order, the values of `C[C@H](Nc1ncnc2[nH]cnc12)c1cc2cccc(Cl)c2nc1-c1ccccc1F` are 26000 nM, 420 nM, 3.2 nM, 67 nM and 3.6 nM.
The corresponding values for `Cc1ncccc1-c1nc2c(Cl)cccc2cc1[C@H](C)Nc1ncnc2[nH]cnc12` are 13000 nM, 1260 nM, 18 nM, 120 nM and 4.3 nM.
`Clc1ccccc1-c1nc2c(Cl)cccc2cc1CNc1ncnc2[nH]cnc12`: the IC50 in assay [1] came to 46000 nM; in assay [2], 3900 nM; in assay [3], 39 nM; in assay [4], 450 nM; in assay [5] it was 25 nM.
The corresponding values for `C[C@H](Nc1ncnc2[nH]cnc12)c1cc2cccc(F)c2nc1-c1cc(F)cc(F)c1` are 9000 nM, 4500 nM, 12 nM, 360 nM and 11 nM.
